# In publication PMC10663837 (iScience, 2023):
# Experiments:
# [1] = test system: progesterone receptor (PR) refolding by Hsp90 chaperone machine; assay: Progesterone receptor; format: biochemical, rabbit
# 4T1 tumors = assay: Histology; format: in vivo, mouse
# MDA-MB-231 cells = assay: Flow cytometry of surface Hsp90, calreticulin, HMGB1, MDA-MB-231 cells; format: cell-based, human; details: 7.5 μM EnnA, 0.5 µM 17-AAG, 24h
# [2] = test system: Hsp90 client proteins, Hsp70, Hsp40, Hsp27; assay: Western blot of Hsp90 client and heat shock proteins in cells; format: cell-based, human and murine
# E0771 transcriptome = assay: Bulk RNA-seq of E0771 cells; format: cell-based, murine; details: ∼14%
# Hsp90β/HOP = assay: Co-immunoprecipitation of purified Hsp90β with HOP; format: binding, human; details: 40 μM EnnA or 5 μM 17-AAG, 5 mM ATP, 30 min 30°C
# [3] = test system: cytokine/chemokine mRNA in E0771 cells; assay: RTqPCR of cytokines, chemokines and CX3CR1
# [4] = test system: MEFs, MCF10A, E0771, Hs578T cells; assay: Cytotoxicity to normal versus cancer cells; format: cell-based, mouse and human; details: 24, 48, 72 h; EnnA 1.25-20 µM, 17AAG 0.15-5 µM; absorbance 490 nm
# [5] = test system: 4T1 tumor-infiltrating CD8+ T cells; assay: Immunofluorescence of 4T1 tumor-infiltrating immune cells; format: in vivo, mouse; details: EnnA 10 mg/kg/48 h, 17-AAG 25 mg/kg/48 h
# Hsp90β/p23 = assay: Co-immunoprecipitation of purified Hsp90β with p23; format: binding, human; details: 40 μM EnnA or 5 μM 17-AAG, 5 mM ATP, 30 min 30°C
# cancer cells [6] = details: cited from earlier work
# Hsp90β [7] = details: cited from earlier work
# [8] = test system: lung breast cancer metastasis; details: cited from earlier work
# E0771 tumors = assay: EnnA combined with CX3CR1 antagonist JMS-17-2, E0771 tumors; format: in vivo, mouse; details: JMS-17-2 10 mg/kg i.p. every 48 h alternating with EnnA 10 mg/kg
# PD-L1 and PD-L2 = details: Hsp90 N-terminal inhibitors; cited from earlier work
# cancer cells [9] = details: cited from earlier work; remark: listed apart in the source
# [10] = test system: patient-derived human melanoma cells; details: cited from earlier work
# Hsp90β [11] = assay: Cellular thermal shift assay; format: cell-based, murine; details: E0771 cells, 20 μM, 90 mn
# Human Hsp90β, purified = Human Hsp90β, purified (human, UniProt P08238 1-724); assay: co-IP
# Chain of Human Hsp90β, purified (P08238 whole entry): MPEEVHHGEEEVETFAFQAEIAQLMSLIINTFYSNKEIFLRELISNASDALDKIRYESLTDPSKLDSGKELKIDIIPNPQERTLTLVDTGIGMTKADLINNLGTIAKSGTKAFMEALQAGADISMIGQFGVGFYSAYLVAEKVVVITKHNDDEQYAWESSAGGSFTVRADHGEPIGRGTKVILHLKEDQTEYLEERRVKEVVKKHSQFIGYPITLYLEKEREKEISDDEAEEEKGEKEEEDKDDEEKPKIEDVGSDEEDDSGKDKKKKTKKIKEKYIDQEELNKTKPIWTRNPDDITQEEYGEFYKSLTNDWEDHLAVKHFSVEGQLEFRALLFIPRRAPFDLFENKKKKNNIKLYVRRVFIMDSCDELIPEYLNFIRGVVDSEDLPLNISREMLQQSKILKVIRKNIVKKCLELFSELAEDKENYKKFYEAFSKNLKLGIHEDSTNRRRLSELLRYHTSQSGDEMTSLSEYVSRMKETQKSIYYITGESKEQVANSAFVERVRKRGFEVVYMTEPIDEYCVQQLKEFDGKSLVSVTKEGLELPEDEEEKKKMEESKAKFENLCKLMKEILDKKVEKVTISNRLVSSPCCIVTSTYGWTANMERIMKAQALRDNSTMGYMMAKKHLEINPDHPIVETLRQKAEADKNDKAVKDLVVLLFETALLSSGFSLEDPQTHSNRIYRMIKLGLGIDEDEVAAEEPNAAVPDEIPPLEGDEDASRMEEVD
molecule,measurement,setting,value
"C=CCNC1=C2C[C@@H](C)C[C@H](OC)[C@H](O)[C@@H](C)/C=C(\C)[C@H](OC(N)=O)[C@@H](OC)/C=C\C=C(/C)C(=O)NC(=CC1=O)C2=O [17-AAG, 17-N-allylamino-demethoxygeldanamycin]",accumulation of Hsp70-rich intermediate chaperoning complexes,"[1]; SDS-PAGE/Coomassie, 1 μM 17-AAG, 10 μM EnnA",accumulation of the intermediate chaperoning complexes rich with Hsp70 as observed with 17-AAG
same,tumor necrosis,"4T1 tumors; 4T1, H&E, EnnA 10 mg/kg, 17-AAG 25 mg/kg",more necrotic than controls
same,immune-like cell infiltration of necrotic areas,4T1 tumors; 4T1 tumors,not as infiltrated as in the case of EnnA-treated animals
same,"surface exposure of Hsp90, calreticulin, HMGB1 vs 17-AAG",MDA-MB-231 cells,not induced by 17-AAG
same,"heat shock response (mRNA and protein of Hsp70, Hsp40, Hsp27)",[2]; 0.5 μM 17-AAG,"upregulation of mRNA and protein levels of Hsp70, Hsp40, and Hsp27"
same,Hsp90 client protein level,"[2]; EnnA at EC50, 0.5 μM 17-AAG",induced Hsp90 client protein degradation
same,number of genes in common between EnnA and 17-AAG,E0771 transcriptome,34 genes
same,effect on Hsp90β binding to HOP,Hsp90β/HOP,"unlike 17-AAG, EnnA does not affect HOP binding to purified Hsp90β"
same,IL10 mRNA,"[3]; E0771, RNA-seq and RTqPCR",decreased mRNA expression of anti-inflammatory cytokines such as IL10
same,"pro-inflammatory cytokines IL12b, TNFα, IL1β mRNA",[3]; RTqPCR,limited impact on these inflammatory cytokines
same,discrimination between cancer and non-transformed cells,[4],does not discriminate between cancer and non-transformed immortalized cells in cell culture
same,CD8+ T cell infiltration,[5],much less so in the 17-AAG-treated group
same,effect on Hsp90β binding to p23,Hsp90β/p23,"as with 17-AAG, EnnA disrupts Hsp90β binding to p23"
CC(C)=CCC[C@]1(C)C=Cc2c(O)c3c(c(CC=C(C)C)c2O1)O[C@]12C(=C[C@@H]4C[C@H]1C(C)(C)O[C@@]2(C/C=C(/C)C(=O)O)C4=O)C3=O [GBA],mode of cancer cell death,cancer cells [6],GBA-induced cancer cell paraptosis
same,binding to Hsp90β middle domain,Hsp90β [7],binds selectively to the middle domain of Hsp90β
"Cl.O=c1c2cccn2c2ccccc2n1CCCN1CCC(c2ccc(Cl)cc2)CC1 [JMS-17-2, 5-[3-[4-(4-Chlorophenyl)-1-piperidinyl]propyl]pyrrolo[1,2-a]quinoxalin-4(5H)-one hydrochloride]",lung breast cancer metastasis,[8],reduce lung breast cancer metastasis
same,effect on EnnA antitumor efficacy,E0771 tumors,significantly reduced the efficacy of EnnA
CCNC(=O)c1noc(-c2cc(C(C)C)c(O)cc2O)c1-c1ccc(CN2CCOCC2)cc1 [Luminespib],transcription and cell-surface expression of PD-L1 and PD-L2,PD-L1 and PD-L2,significant decrease in the transcription and cancer cell-surface expression of immune checkpoint ligands PD-L1 and PD-L2
CC(C)NCCCn1c(Sc2cc3c(cc2I)OCO3)nc2c(N)ncnc21 [PU-H71],transcription and cell-surface expression of PD-L1 and PD-L2,PD-L1 and PD-L2,significant decrease in the transcription and cancer cell-surface expression of immune checkpoint ligands PD-L1 and PD-L2
CC1(C)CC(=O)c2c(C(F)(F)F)nn(-c3ccc(C(N)=O)c(N[C@H]4CC[C@H](OC(=O)CN)CC4)c3)c2C1 [SNX-5422],transcription and cell-surface expression of PD-L1 and PD-L2,PD-L1 and PD-L2,significant decrease in the transcription and cancer cell-surface expression of immune checkpoint ligands PD-L1 and PD-L2
CC(C)C[C@H](NC(=O)[C@H](Cc1ccccc1)NC(=O)c1cnccn1)B(O)O [bortezomib],Hsp90 exposure at cell surface,cancer cells [9],expose Hsp90 at the cell surface
CC(C)c1cc(-c2n[nH]c(=O)n2-c2ccc3c(ccn3C)c2)c(O)cc1O [ganetespib],T-cell-mediated killing of melanoma cells,[10]; autologous T cells in vitro,enhances T-cell-mediated killing of patient-derived human melanoma cells
same,effect on anti-CTLA4 and anti-PD-1 therapy,[10]; in vivo,potentiates responses to anti-CTLA4 and anti-PD-1 therapy in vivo
same,transcription and cell-surface expression of PD-L1 and PD-L2,PD-L1 and PD-L2,significant decrease in the transcription and cancer cell-surface expression of immune checkpoint ligands PD-L1 and PD-L2
COC1=C2C[C@@H](C)C[C@H](OC)[C@H](O)[C@@H](C)/C=C(\C)[C@H](OC(N)=O)[C@@H](OC)/C=C\C=C(/C)C(=O)NC(=CC1=O)C2=O [geldanamycin],transcription and cell-surface expression of PD-L1 and PD-L2,PD-L1 and PD-L2,significant decrease in the transcription and cancer cell-surface expression of immune checkpoint ligands PD-L1 and PD-L2
Enniatin B [AD96],inhibition of PR refolding,"[1]; RRL, Figures S1A–S1C, 10 µM drug in screen",did not inhibit the PR refolding
same,CETSA stabilization of Hsp90,Hsp90β [11],did not stabilize Hsp90
"Human p23, purified (natural protein, UniProt Q15185 1-160, looked up) MQPASAKWYDRRDYVFIEFCVEDSKDVNVNFEKSKLTFSCLGGSDNFKHLNEIDLFHCIDPNDSKHKRTDRSILCCLRKGESGQSWPRLTKERAKLNWLSVDFNNWKDWEDDSDEDMSNFDRFSEMMNNMGGDEDVDLPEVDGADDDSQDSDDEKMPDLE",binding result,"Human Hsp90β, purified",binds
